Data: patent US20250084058A1, “PHENYLPYRAZOLE COMPOUND AND APPLICATION THEREOF” (priority 2022, published 2025)
Read-outs that look alike come from different tables or passages of the source.

Columns and labels:
Assay type in all cases: in vivo
[1] = tested on: Mythimna separata; test: Activity determination of killing Mythimna separata (Airbrush spray, corn leaf segments); settings: foliar, dose 1.25 mg/L, 3rd instar larvae, 3rd day after administration, read-out: mortality against Mythimna separata
Procedure: (§1) The compounds to be tested were dissolved in a mixed solvent of acetone/methanol (1:1) and then diluted to desired concentrations with water containing 0.1% (wt) Tween 80.
(§2) With Mythimna separata and Plutella xylostella as targets, the activity was determined by Airbrush spray method.
Determination method: Corn leaves were cut into leaf segments with the length of 2 cm, the pressure of Airbrush spray treatment is 10 psi (about 0.7 kg/cm^2), and the compounds to be tested were sprayed onto the front and back surfaces of each leaf segment at a liquid amount of 0.5 mL. After drying in the shade, 10 3rd instar larvae were inoculated to each treatment, and each treatment was repeated for 3 times. After the treatment, the larvae were placed in an observation room for culture at 25° C. with relative humidity of 60-70%. On the 3rd day after administration, the number of surviving larvae was investigated, and the mortality was calculated.

[2] = tested on: Dermacentor variabilis; test: Insecticidal test on Dermacentor variabilis (compound film in culture dish); settings: 1 μg/cm^2, 1st nymphs, after 24 h, 25° C., read-out: insect mortality (Dermacentor variabilis)
Procedure: (§3) 4 mg of compounds to be tested were dissolved in 40 mL of acetone to obtain acetone solutions with a concentration of 100 mg/L. Bottom surfaces and side surfaces of 2 culture dishes with an inner diameter of 5.3 cm were coated with 400 μL of the drug solutions, and when the acetone was volatilized, films of the compounds of the present disclosure were prepared on inner walls of the culture dishes. The inner walls of the culture dishes used were 40 cm^2, and a dose of the treatment drugs was 1 μg/cm^2. 10 1st nymphs of Dermacentor variabilis (males and females were mixed) were placed in the culture dishes. The 2 culture dishes were combined, sealed with tape at a junction portion to prevent escape of the nymphs, and then stored in a constant-temperature room at 25° C. The number of dead insects was checked after 24 h, and the insect mortality was calculated. The test was repeated for 3 times. Test results: The insect mortality of compounds 1, 2, 3, 4, 5, 11, 12, 18, 32, 33, 34, 46, 60, 74, 88, 99, 101, 102, 104, 105, 108, 109, 110, 111, 113 and 114 is 70% or above.

[3] = tested on: Ctenocephalides felis; test: Insecticidal test on Ctenocephalides felis (compound film in culture dish); settings: 1 μg/cm^2; adult Ctenocephalides felis; after 72 h; 25° C.; read-out: insect mortality (Ctenocephalides felis)
Procedure: as §3, with “of” for “of 2”, “adult Ctenocephalides felis” for “1st nymphs of Dermacentor variabilis”, “dishes, and the” for “dishes. The 2”, “covered” for “combined, sealed with tape at a junction portion to prevent escape of the nymphs,”, “72” for “24”

[4] = tested on: Tetranychus cinnabarinus; test: Greenhouse acaricidal activity on adult acarids of Tetranychus cinnabarinus (spraying of Phaseolus vulgaris seedlings); settings: dose 1.25 mg/L, after 72 h, read-out: mortality against adult acarids of Tetranychus cinnabarinus
Procedure: According to the solubility of the compounds to be tested, the compounds to be tested were dissolved in acetone or dimethyl sulfoxide and prepared into 50 mL of solutions to be tested at desired concentrations with a 0.1% Tween 80 solution, where the content of the acetone or dimethyl sulfoxide in the solutions was not higher than 10%.
Two true leaves of Phaseolus vulgaris seedlings were taken, and 30-40 adult acarids of Tetranychus cinnabarinus were inoculated. After the cardinal number was investigated, the whole plants were subjected to spraying treatment with a hand-held sprayer, each treatment was repeated for 3 times, and the plants were placed in a standard observation room after the treatment. The number of surviving acarids was investigated after 72 h, and the mortality was calculated.

[5] = tested on: Plutella xylostella; test: Activity determination of killing Plutella xylostella (Airbrush spray, cabbage leaf discs); settings: foliar, 3rd day after administration; for mortality at 0.3125 µg/mL: 0.3125 mg/L, read-out: Mortality (%, on 3rd day after administration) 0.3125 mg/L; for mortality at 0.625 µg/mL: 0.625 mg/L, read-out: Mortality (%, on 3rd day after administration) 0.625 mg/L
Procedure: as §1, §2
Determination method: Cabbage leaves were punched into leaf discs with the diameter of 2 cm by a puncher, the pressure of Airbrush spray treatment is 10 psi (about 0.7 kg/cm^2), and the compounds to be tested were sprayed onto the front and back surfaces of each leaf disc at a liquid amount of 0.5 mL. After drying in the shade, 10 3rd instar larvae were inoculated to each treatment, and each treatment was repeated for 3 times. After the treatment, the larvae were placed in an observation room for culture at 25° C. with relative humidity of 60-70%. On 3rd day after administration, the number of surviving larvae was investigated, and the mortality was calculated.
Some compounds of the present disclosure and control compounds were selected to carry out parallel comparative experiments of the insecticidal activity against Plutella xylostella (on 3rd day after administration), and the determination method was the same as above.

[6] = dose 1.25 mg/L, 3rd instar larvae, read-out: mortality against Plutella xylostella
[7] = parallel comparative experiment
[8] = 1.25 mg/L, parallel comparative experiment, read-out: Mortality (%, on 3rd day after administration) 1.25 mg/L

In the case of `N#CCCN(C(=O)c1cc(-c2cnn(-c3c(Cl)cc(C(F)(C(F)(F)F)C(F)(F)F)cc3Br)c2)cnc1Cl)C1CC1` [Compound 33], the mortality at 1.25 µg/mL [1] is reported as no less than 90%, the mortality at 1 µg/cm2 [2] is reported as no less than 70% and the mortality at 1 µg/cm2 [3] is reported as no less than 70%. For the same molecule, the mortality at 1.25 µg/mL [4] was no less than 90% and the mortality at 1.25 µg/mL [5, 6] was no less than 90%.

`N#CCN(C(=O)c1cc(-c2cnn(-c3c(Cl)cc(C(F)(C(F)(F)F)C(F)(F)F)cc3Br)c2)cnc1Cl)C1CC1` [Compound 32] showed a mortality at 1.25 µg/mL [1] of no less than 90%, a mortality at 1 µg/cm2 [2] of no less than 70% and a mortality at 1 µg/cm2 [3] of no less than 70%. For the same molecule, the mortality at 1.25 µg/mL [4] was no less than 90% and the mortality at 1.25 µg/mL [5, 6] was no less than 90%.

`N#CCN(C(=O)c1cc(-c2cnn(-c3c(Br)cc(C(F)(C(F)(F)F)C(F)(F)F)cc3OC(F)(F)F)c2)cnc1Cl)C1CC1` [Compound 74] showed a mortality at 1.25 µg/mL [1] of no less than 90%, a mortality at 1 µg/cm2 [2] of no less than 70% and a mortality at 1 µg/cm2 [3] of no less than 70%. It also gave a mortality at 1.25 µg/mL [4] of no less than 90% and a mortality at 1.25 µg/mL [5, 6] of no less than 90%.

With `N#CCCN(C(=O)c1cc(-c2cnn(-c3c(Cl)cc(C(F)(C(F)(F)F)C(F)(F)F)cc3Cl)c2)cnc1Cl)C1CC1` [Compound 5] the mortality at 1.25 µg/mL [1] was no less than 90%, the mortality at 1 µg/cm2 [2] was no less than 70% and the mortality at 1 µg/cm2 [3] was no less than 70%. The mortality at 1.25 µg/mL [4] was no less than 90%, the mortality at 0.3125 µg/mL [5, 7] was 100% and the mortality at 0.625 µg/mL [5, 7] was 100%. For the same molecule, the mortality at 1.25 µg/mL [5, 8] was 100% and the mortality at 1.25 µg/mL [5, 6] was no less than 90%.

Molecule `CCC(=O)N(C(=O)c1cc(-c2cnn(-c3c(Cl)cc(C(F)(C(F)(F)F)C(F)(F)F)cc3Cl)c2)cnc1Cl)C1(C#N)CC1` [Compound 109] has a mortality at 1.25 µg/mL [1] of no less than 90%, a mortality at 1 µg/cm2 [2] of no less than 70% and a mortality at 1 µg/cm2 [3] of no less than 70%. The mortality at 1.25 µg/mL [4] was no less than 90% and the mortality at 1.25 µg/mL [5, 6] was no less than 90%.

`CC(C)C(=O)N(C(=O)c1cc(-c2cnn(-c3c(Cl)cc(C(F)(C(F)(F)F)C(F)(F)F)cc3Cl)c2)cnc1Cl)C1CC1` [Compound 102] showed a mortality at 1.25 µg/mL [1] of no less than 90%, a mortality at 1 µg/cm2 [2] of no less than 70% and a mortality at 1 µg/cm2 [3] of no less than 70%. The mortality at 1.25 µg/mL [4] was no less than 90% and the mortality at 1.25 µg/mL [5, 6] was no less than 90%.

With `N#CCN(C(=O)c1cc(-c2cnn(-c3c(Br)cc(C(F)(C(F)(F)F)C(F)(F)F)cc3C(F)(F)F)c2)cnc1Cl)C1CC1` [Compound 46] the mortality at 1.25 µg/mL [1] was no less than 90%, the mortality at 1 µg/cm2 [2] was no less than 70% and the mortality at 1 µg/cm2 [3] was no less than 70%. The mortality at 1.25 µg/mL [4] was no less than 90% and the mortality at 1.25 µg/mL [5, 6] was no less than 90%.

With `N#CCN(C(=O)c1cc(-c2cnn(-c3c(Cl)cc(C(F)(C(F)(F)F)C(F)(F)F)cc3Cl)c2)cnc1Cl)C1(C#N)CC1` [Compound 11] the mortality at 1.25 µg/mL [1] was no less than 90%, the mortality at 1 µg/cm2 [2] was no less than 70% and the mortality at 1 µg/cm2 [3] was no less than 70%. The mortality at 1.25 µg/mL [4] was no less than 90%, the mortality at 0.3125 µg/mL [5, 7] was 100% and the mortality at 0.625 µg/mL [5, 7] was 100%. For the same molecule, the mortality at 1.25 µg/mL [5, 8] was 100% and the mortality at 1.25 µg/mL [5, 6] was no less than 90%.

Work on `CCCC(=O)N(C(=O)c1cc(-c2cnn(-c3c(Cl)cc(C(F)(C(F)(F)F)C(F)(F)F)cc3Cl)c2)cnc1Cl)C1CC1` [Compound 101] yielded a mortality at 1.25 µg/mL [1] of no less than 90%, a mortality at 1 µg/cm2 [2] of no less than 70% and a mortality at 1 µg/cm2 [3] of no less than 70%. It also gave a mortality at 1.25 µg/mL [4] of no less than 90% and a mortality at 1.25 µg/mL [5, 6] of no less than 90%.
